Reference: patent US20150079000A1, “Labelled Quinoxaline Derivatives as Multimodal Radiopharmaceuticals and Their Precursors” (INSTITUT NATIONAL DE LA SANTET DE LA RECHERCHE MEDICALE, priority 2012, published 2015)

Key:
[1] = tested on: melanin polymers; assay: Biodistribution by secondary ion mass spectrometry (SIMS) analysis; type: in vivo, C57BL/6J mice; conditions: B16BL6 melanoma cells colony in lung, 1 h after i.v. 0.1 μmol/mice
Description: B16BL6 cells were injected intravenously into male C57BL/6J mice to obtain, within 12 days, tumour cell colonies in lungs mimicking pulmonary micrometastases. After i.v. administration of compound (1) (0.1 μmol/mice in 0.2 mL of a hydroalcoholic solution (5% v/v, 0.9% NaCl) per mouse), mice were killed 1 h post injection. Lungs were removed and small pieces of tissue including B16 melanoma colonies were isolated and fixed by slam freezing on an LN2-precooled metal mirror. Samples were dehydrated by freeze drying starting at −110 to −10° C. before embedding in Spurr resin. Serial sections of 0.4 μm thick were deposited on stainless steel holders for SIMS analysis or on glass slides for light microscopy observation.

[2] = tested on: SKMEL-3 human melanoma model; assay: Internal radiotherapy with [131I](1), SKMEL-3 model; type: in vivo, mice
Description: Compound (1) was labelled with iodine-131, at high specific activity, from the corresponding stannane precursor, as described in detail in example 8. The labeling was performed with a radiochemical yield of 80% and a radiochemical purity>99%. […] The antitumour activity of the compound [^131I](1) was also evaluated in SKMEL-3 human melanoma model after injections of 25 MBq of [^131I](1): Two groups of mice were used receiving two injections at day-33 and day-40 or three injections of at day-33, day-40 and day-47 post inoculation. Results were compared to control group injected with saline.

[3] = Calculation of absorbed dose to the tumour and organs (MIRD); type: in vivo, C57BL/6J mice; conditions: iodine 131
[4] = tested on: melanoma model B16BL6; assay: Internal radiotherapy with [131I](1), B16BL6 model; type: in vivo, mice
[5] = octanol/water (PBS buffer) partition coefficient (log D); type: physicochemical

CCN(CCNC(=O)c1cnc2cc(I)ccc2n1)CCOCCOCCOCCF [Compound 1, N-(12-ethyl-1-fluoro-3,6,9-trioxa-12-azatetradecan-14-yl)-6-iodoquinoxaline-2-carboxamide]
colocalisation with melanin polymers (SIMS, CN− and iodine-127 signals) [1]: perfect colocalisation

CCN(CCNC(=O)c1cnc2cc([131I])ccc2n1)CCOCCOCCOCCF [[^131I](1)]
tumour doubling time ([2]; SKMEL-3 tumours, injections of 25 MBq once weekly for 2 or 3 weeks): 26.5 ± 7.8 days
median survival time ([2]; treated SKMEL-3 bearing-mice): 111 days
Biological half life (h) ([3]; Adipose): 38.28 h
Effective half life ([3]; Adipose): 47.78 h
Biological half life (h) ([3]; Bladder (empty)): 27.57 h
Effective half life ([3]; Bladder (empty)): 32.17 h
Biological half life (h) ([3]; Blood): 27.45 h
Effective half life ([3]; Blood): 32.02 h
Biological half life (h) ([3]; Brain): 27.55 h
Effective half life ([3]; Brain): 41.63 h
Biological half life (h) ([3]; Colon with Faeces): 28.48 h
Effective half life ([3]; Colon with Faeces): 26.92 h
Biological half life (h) ([3]; Eyes): 125.03 h
Effective half life ([3]; Eyes): 356.77 h
Biological half life (h) ([3]; Heart): 68.51 h
Effective half life ([3]; Heart): 46.93 h
Biological half life (h) ([3]; Kidney): 27.60 h
Effective half life ([3]; Kidney): 32.22 h
Biological half life (h) ([3]; Liver): 25.87 h
Effective half life ([3]; Liver): 29.89 h
Biological half life (h) ([3]; Lung): 37.73 h
Effective half life ([3]; Lung): 34.21 h
Biological half life (h) ([3]; Muscle): 37.36 h
Effective half life ([3]; Muscle): 46.36 h
Biological half life (h) ([3]; Pancreas): 29.04 h
Effective half life ([3]; Pancreas): 40.79 h
Biological half life (h) ([3]; Skin): 46.20 h
Effective half life ([3]; Skin): 60.79 h
Biological half life (h) ([3]; Small Bowels): 23.67 h
Effective half life ([3]; Small Bowels): 26.99 h
Biological half life (h) ([3]; Spleen): 33.66 h
Effective half life ([3]; Spleen): 33.43 h
Biological half life (h) ([3]; Stomach): 27.36 h
Effective half life ([3]; Stomach): 31.89 h
Biological half life (h) ([3]; Testes): 27.57 h
Effective half life ([3]; Testes): 32.16 h
Biological half life (h) ([3]; Tumour): 71.67 h
Effective half life ([3]; Tumour): 114.18 h
Biological half life (h) ([3]; bones): 12.92 h
Effective half life ([3]; bones): 13.85 h
metastasis dissemination ([4]; B16BL6 melanoma model): inhibition of metastasis dissemination
tumour doubling time ([4]; B16BL6 tumours, two i.v. injections of 20 MBq at day-7 and day-11): 2.9 ± 0.5 days
median survival time ([4]; treated B16BL6 bearing-mice): 27 days
octanol/water (PBS buffer) partition coefficient (log D) [5]: 0.95±0.04
